“And” between values parts separate entries of the source, which are not always exact repeats. Equal values may be shown once.
Target: Gamma-aminobutyric acid receptor subunit alpha-1 (Rattus norvegicus, UniProt P62813)
Sequence (P62813 whole entry): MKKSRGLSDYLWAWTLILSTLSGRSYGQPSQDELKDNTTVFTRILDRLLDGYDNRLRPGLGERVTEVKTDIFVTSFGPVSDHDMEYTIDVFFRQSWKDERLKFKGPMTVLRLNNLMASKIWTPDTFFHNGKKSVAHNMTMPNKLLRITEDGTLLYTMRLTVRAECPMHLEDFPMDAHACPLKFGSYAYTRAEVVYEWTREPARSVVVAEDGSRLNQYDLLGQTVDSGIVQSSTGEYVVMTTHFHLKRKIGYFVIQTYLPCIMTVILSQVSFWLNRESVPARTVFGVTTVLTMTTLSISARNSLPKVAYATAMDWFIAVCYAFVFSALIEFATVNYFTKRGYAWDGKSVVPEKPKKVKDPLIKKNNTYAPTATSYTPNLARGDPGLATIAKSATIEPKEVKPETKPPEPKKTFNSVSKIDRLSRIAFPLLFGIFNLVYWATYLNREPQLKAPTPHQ

For `Cc1nnc2n1-c1ccc(Cl)cc1C(c1ccccc1Cl)=NC2` [Halcion], the Ki was 0.34 nM and 0.31 nM and 0.55 nM and 0.45 nM.
